Data: article PMC10055926
Values joined by “and” are separate entries in the source; they are usually repeats but may differ in a detail not shown here. Equal values may be shown once. “Also recorded” adds a separate entry of the source. Where a name gives a salt, the structure may show the parent alone. Read-outs that look alike come from different tables or passages of the source.

Legend:
[1] = in vitro; details: African green monkey
[2] = tested on: SARS-CoV-2; test: Immunofluorescence (HCI, dsRNA stain) antiviral assay, SARS-CoV-2 in HeLa-hACE2; type: cell-based; details: read-out: EC50 against SARS-CoV-2 in HeLa-hACE2
[3] = Cytotoxicity in uninfected A549-hACE2 cells (ATPlite); details: human, A549-hACE2 cells
[4] = tested on: HCoV-229E; test: microbe, parasite or virus in culture; type: cell-based, human coronavirus 229E; details: HCI (dsRNA stain), 24 h at 35 °C, read-out: EC50 against HCoV-229E in HeLa-hACE2
[5] = tested on: SARS-CoV-2; test: Time-of-addition (TOA) assay in HeLa-hACE2, dsRNA staining; type: cell-based; details: HeLa-hACE2, MOI 4, 2.5-5 µM compound, dsRNA readout at 8 hpi
[6] = tested on: HeLa-hACE2 cells; test: Immunofluorescence-based antiviral assay with LysoTracker dye in HeLa-hACE2; details: for LysoTracker signal intensity (in words): HeLa-hACE2, acidic organelle accumulation
[7] = tested on: A549-hACE2 cells; test: Cytotoxicity in uninfected A549-hACE2 cells (ATPlite); details: for CC50: read-out: CC50 in A549-hACE2, Toxicity (ATPlite), uninfected cells
[8] = tested on: SARS-CoV-1; test: microbe, parasite or virus in culture; type: cell-based; details: 24 h, read-out: EC50 against SARS-CoV-1 in A549-hACE2
[9] = tested on: VeroE6-eGFP cells
[10] = tested on: SARS-CoV-2; test: SARS-CoV-2 viral RNA copy determination in A549-hACE2 cells (RT-qPCR on supernatant); type: cell-based; details: for reduction of SARS-CoV-2 RNA in the supernatant: A549-hACE2, RT-qPCR at 48 hpi; for EC50: read-out: EC50, viral RNA reduction in supernatant
[11] = tested on: SARS-CoV-2; test: SARS-CoV-2 antiviral assay in VeroE6-eGFP cells (CPE reduction, GFP); details: for EC50: MOI 0.001, 96 h
[12] = tested on: SARS-CoV-2; test: Immunofluorescence (HCI, spike stain) antiviral assay, SARS-CoV-2 in A549-hACE2; type: cell-based; details: read-out: EC50 against SARS-CoV-2 in A549-hACE2
[13] = tested on: SARS-CoV-2 pseudovirus (SARS2pp); test: microbe, parasite or virus in culture; type: cell-based
[14] = tested on: VeroE6 cells
[15] = tested on: SARS-CoV-2 pseudovirus (SARS2pp); test: microbe, parasite or virus in culture; type: cell-based; details: luciferase, 24 h, read-out: EC50, neutralization of SARS2pp entry in VeroE6
[16] = tested on: SARS-CoV-2; test: microbe, parasite or virus in culture; type: cell-based, SARS-CoV-2 (Lineage A, B.1); details: for antiviral activity in HNEC ALI cultures (in words): viral RNA copies in apical washes over three days; for EC50: vRNA (qPCR), read-out: EC50 against SARS-CoV-2 in HNECs
[17] = tested on: SARS-CoV-2
[18] = tested on: SARS-CoV-2; test: Antiviral assessment in Caco-2 cells by visual CPE scoring; type: cell-based; details: read-out: EC50 against SARS-CoV-2 in Caco-2
[19] = molecular target: T1, cathepsin L (Homo sapiens, UniProt P07711); test: Enzymatic cathepsin L inhibition assay (Eurofins); type: biochemical
T1 construct: purchased Eurofins (contract assay)
T1 sequence (P07711 114-333): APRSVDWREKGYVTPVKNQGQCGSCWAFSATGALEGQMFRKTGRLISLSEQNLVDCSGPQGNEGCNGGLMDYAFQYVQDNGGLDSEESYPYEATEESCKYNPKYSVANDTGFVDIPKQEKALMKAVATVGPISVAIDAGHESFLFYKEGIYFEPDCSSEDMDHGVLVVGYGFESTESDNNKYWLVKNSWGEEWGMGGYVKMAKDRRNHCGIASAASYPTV

[20] = in vitro; details: human, Caco-2
[21] = in vitro; details: African green monkey; remark: listed apart in the source
[22] = Severe acute respiratory syndrome coronavirus 2, 24 h
[23] = A549-hACE2, SARS-CoV-2 MOI 0.1, RT-qPCR at 48 hpi
[24] = read-out: EC50 against SARS-CoV-2 in VeroE6-eGFP, CPE reduction (GFP)
[25] = Severe acute respiratory syndrome coronavirus
[26] = Severe acute respiratory syndrome coronavirus 2, A549-hACE2, SARS-CoV-2 MOI 0.1, RT-qPCR at 48 hpi
[27] = Severe acute respiratory syndrome coronavirus 2, 96 h, read-out: EC50 against SARS-CoV-2 in VeroE6-eGFP, CPE reduction (GFP)
[28] = Severe acute respiratory syndrome-related coronavirus, VeroE6/TMPRSS2, SARS2pp, mean ± SD, unit inferred, [µM] only in axis labels, read-out: VeroE6 TMPRSS2: EC50 (Figure 6)
[29] = Severe acute respiratory syndrome-related coronavirus, Vero C1008

For `CC(C)C(=O)OC[C@H]1O[C@@H](n2ccc(NO)nc2=O)[C@H](O)[C@@H]1O` [Molnu-Piravir, molnupiravir], the CC50 [1] was > 100000 nM, the EC50 [2, 22] was 1010 ± 110 nM and the CC50 [3] was > 50000 nM. For the same compound, the EC50 ([4]; Human coronavirus 229E, 24 h) was 1320 ± 180 nM.
For `COc1cccc2[nH]c(C(=O)N[C@@H](CC(C)C)C(=O)N[C@@H](C[C@@H]3CCNC3=O)C(=O)CO)cc12` [PF-00835231], the “time of addition until which inhibition of dsRNA formation was sustained” value [5] was ~ 4 hpi, the “LysoTracker signal intensity (in words)” value [6] was “neither one of the compounds increased the intensity of the LysoTracker signal” and the EC50 ([2]; 24 h) was 160 ± 20 nM. For the same compound, the CC50 [7] was > 12500 nM, the EC50 ([8]; HCI (spike stain), MOI 0.1) was 550 ± 40 nM and the CC50 [9] was > 20000 nM. For the same compound, the EC50 [4] was 470 ± 40 nM, the “reduction of SARS-CoV-2 RNA in the supernatant” value (shortened to “reduction of SARS-CoV-2 RNA”) [10] was ~ 4.8 log and the EC50 [10, 23] was 530 nM and 532 nM. The EC50 [11, 24] was > 50000 nM and the EC50 ([12]; 24 h) was 180 ± 8 nM.
In the case of `CN1CCN(C(=O)N[C@@H](Cc2ccccc2)C(=O)N[C@H](/C=C/S(=O)(=O)c2ccccc2)CCc2ccccc2)CC1` [K777], the EC50 ([13]; luciferase, 24 h, read-out: EC50, neutralization of SARS2pp entry in VeroE6 TMPRSS2) is reported as 18.6 µM, the “concentration at which the LysoTracker signal is significantly increased” value ([6]; HeLa-hACE2, adjusted p-value < 0.05 vs virus control) is reported as ≥ 2.2 µM and the EC50 ([2]; 24 h) is reported as 0.6 ± 0.05 nM. For the same compound, the CC50 [7] was > 50 nM, the EC50 ([8]; HCI (spike stain), MOI 0.1) was 3 ± 0.5 nM and the CC50 [9] was ~50000 nM. For the same compound, the CC50 [14] was > 30000 nM, the EC50 [4] was 2 ± 0.4 nM and the EC50 [11, 24] was 540 ± 140 nM. It also gave an EC50 ([12]; 24 h) of 4 ± 0.2 nM and an EC50 [15] of 23 nM.
With `CC(C)(C)[C@H](NC(=O)C(F)(F)F)C(=O)N1C[C@H]2[C@@H]([C@H]1C(=O)N[C@H](C#N)C[C@@H]1CCNC1=O)C2(C)C` [PF-07321332, nirmatrelvir] the “time of addition until which inhibition of dsRNA formation was sustained” value [5] was ~ 4 hpi, the “antiviral activity in HNEC ALI cultures (in words)” value ([16]; compound at 2.5 µM) was “did” and the EC50 [16] was 180 ± 140 nM.
For `CCC(CC)COC(=O)[C@H](C)N[P@](=O)(OC[C@H]1O[C@@](C#N)(c2ccc3c(N)ncnn23)[C@H](O)[C@@H]1O)Oc1ccccc1` [Remdesivir, remdesivir], the CC50 [1] was > 100000 nM, the “time of addition until which inhibition of dsRNA formation was sustained” value [5] was ~ 4 hpi and the “LysoTracker signal intensity (in words)” value [6] was “neither one of the compounds increased the intensity of the LysoTracker signal”. For the same compound, the EC50 [2, 22] was 110 ± 10 nM, the CC50 [3] was > 25000 nM and the EC50 [8, 25] was 330 ± 20 nM. For the same compound, the EC50 [17] was 1420 ± 150 nM, the EC50 ([18]; Severe acute respiratory syndrome coronavirus 2, Caco-2, 48 h) was 770 ± 260 nM and the EC50 ([4]; Human coronavirus 229E, 24 h) was 110 ± 9 nM. For the same compound, the “reduction of SARS-CoV-2 RNA” value [10] was ~ 4.5 log, the EC50 [10, 23] was 411 nM and the EC50 [10, 26] was 410 nM. For the same compound, the EC50 [11, 27] was 1340 nM and the EC50 [12, 22] was 180 ± 10 nM.
With `CC(=O)N[C@@H](CC(C)C)C(=O)N[C@@H](CC(C)C)C(=O)N[C@H](C=O)CCCNC(=N)N` [leupeptin] the “cathepsin L activity (in words)” value ([19]; positive control) was “blocked cathepsin L activity”.
For `C[C@H](NC(=O)[C@H](Cc1ccc(O)cc1)NC(=O)OCc1ccccc1)C(=O)C=[N+]=[N-]`, the “activity against SARS2pp in VeroE6 TMPRSS2 (in words)” value [13] was “not active at all”, the EC50 [13, 28] was > 30 µM and the “time of addition from which antiviral activity was lost” value [5] was ≥ 2 h post virus infection. For the same compound, the “LysoTracker signal intensity (in words)” value [6] was “did not significantly increase the intensity of the LysoTracker signal”, the EC50 ([2]; 24 h) was 10 ± 1 nM and the EC50 [2, 22] was 6 nM. For the same compound, the “cytotoxicity (in words)” value ([7]; uninfected A549-hACE2, ATPlite) was “did not show cytotoxicity”, the CC50 [3] was > 25000 nM and the EC50 [8, 25] was 50 ± 16 nM. The EC50 ([18]; Severe acute respiratory syndrome coronavirus 2, Caco-2, CPE reduction (manual scoring), MOI 0.01, 48 h) was > 50000 nM, the EC50 [4] was 70 ± 10 nM and the EC50 ([4]; Human coronavirus 229E, 24 h) was 69 nM. For the same compound, the “reduction of SARS-CoV-2 RNA” value [10] was ~ 4 log and 4 log, the EC50 [10, 23] was 321 nM and the EC50 [10, 26] was 320 nM. The EC50 ([19]; enzymatic assay, substrate Z-Phe-Arg AMC, one experiment) was < 50 nM, the “selectivity index (SI), VeroE6-eGFP SARS-CoV-2” value ([11]; CC50/EC50 in VeroE6-eGFP) was > 15 and the EC50 [11, 27] was 1330 ± 490 nM. The EC50 ([12]; 24 h) was 50 ± 3 nM, the EC50 [12, 22] was 46 nM and the EC50 [15, 29] was 130 nM. The CC50 [20] was > 50000 nM, the EC50 ([16]; Severe acute respiratory syndrome coronavirus 2) was > 20000 nM and the “antiviral activity in HNEC ALI cultures (in words)” value ([16]; compound at 20 µM) was “does not inhibit SARS-CoV-2 infection; also recorded: did not show antiviral activity”. The “antiviral activity in differentiated HNECs (in words)” value ([16]; concentration not given) was “did not show antiviral activity”.
With `CN(C)C(=O)COC(=O)Cc1ccc(OC(=O)c2ccc(NC(=N)N)cc2)cc1` [Camostat mesylate, camostat mesylate] the EC50 [13, 28] was 18 ± 5.52 µM, the EC50 ([13]; Severe acute respiratory syndrome-related coronavirus, VeroE6/TMPRSS2, luciferase, 24 h, read-out: EC50, neutralization of SARS2pp entry in VeroE6 TMPRSS2) was ~18 µM and the CC50 [21] was > 30000 nM. The EC50 [15, 29] was > 30000 nM.
